Reference: BindingDB's records for doi:10.1016/j.bmcl.2005.03.029 (Duquesne University, 2005)

Target: T1, Dihydrofolate reductase (Escherichia coli (strain K12), UniProt O30463+P0ABQ4)
T1 sequence (P0ABQ4 whole entry): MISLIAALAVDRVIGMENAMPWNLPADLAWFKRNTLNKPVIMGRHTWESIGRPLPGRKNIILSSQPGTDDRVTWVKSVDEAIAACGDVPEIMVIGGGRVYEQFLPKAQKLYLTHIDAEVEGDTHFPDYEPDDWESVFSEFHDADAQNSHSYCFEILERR
T1 sequence (O30463 whole entry): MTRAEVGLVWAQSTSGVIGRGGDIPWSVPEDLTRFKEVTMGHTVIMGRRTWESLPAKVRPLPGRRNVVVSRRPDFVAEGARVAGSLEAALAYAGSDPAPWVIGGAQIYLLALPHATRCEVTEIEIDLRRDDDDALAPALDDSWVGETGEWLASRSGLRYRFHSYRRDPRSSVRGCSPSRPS
Assay: Inhibitory concentration against Escherichia coli dihydrofolate reductase

## CN(Cc1ccc2c(n1)C(N)N=C(N)N2)c1ccc(C(=O)NC(CCC(=O)O)C(=O)O)cc1 (stereo unspecified) [2-{4-[(2,4-Diamino-4,4a-dihydro-pyrido[3,2-d]pyrimidin-6-ylmethyl)-methyl-amino]-benzoylamino}-pentanedioic acid]
  IC50: 660 µM
